Measurements reported in patent publication US11524966B1 (Valo Early Discovery, Inc., priority 2017, dated 2022).
Like-named read-outs stand apart in the source and are kept apart here.

Biological target: T1, USP28 (His-tagged USP28-FL-mammalian) (Homo sapiens, UniProt Q96RU2)
T1 construct: Expression of USP28 (1-1077)-TEV-6*His (pTT5 vector); made in house; host or cells: Expi293f cells (pTT5 vector)
T1 sequence (Q96RU2 1-1077): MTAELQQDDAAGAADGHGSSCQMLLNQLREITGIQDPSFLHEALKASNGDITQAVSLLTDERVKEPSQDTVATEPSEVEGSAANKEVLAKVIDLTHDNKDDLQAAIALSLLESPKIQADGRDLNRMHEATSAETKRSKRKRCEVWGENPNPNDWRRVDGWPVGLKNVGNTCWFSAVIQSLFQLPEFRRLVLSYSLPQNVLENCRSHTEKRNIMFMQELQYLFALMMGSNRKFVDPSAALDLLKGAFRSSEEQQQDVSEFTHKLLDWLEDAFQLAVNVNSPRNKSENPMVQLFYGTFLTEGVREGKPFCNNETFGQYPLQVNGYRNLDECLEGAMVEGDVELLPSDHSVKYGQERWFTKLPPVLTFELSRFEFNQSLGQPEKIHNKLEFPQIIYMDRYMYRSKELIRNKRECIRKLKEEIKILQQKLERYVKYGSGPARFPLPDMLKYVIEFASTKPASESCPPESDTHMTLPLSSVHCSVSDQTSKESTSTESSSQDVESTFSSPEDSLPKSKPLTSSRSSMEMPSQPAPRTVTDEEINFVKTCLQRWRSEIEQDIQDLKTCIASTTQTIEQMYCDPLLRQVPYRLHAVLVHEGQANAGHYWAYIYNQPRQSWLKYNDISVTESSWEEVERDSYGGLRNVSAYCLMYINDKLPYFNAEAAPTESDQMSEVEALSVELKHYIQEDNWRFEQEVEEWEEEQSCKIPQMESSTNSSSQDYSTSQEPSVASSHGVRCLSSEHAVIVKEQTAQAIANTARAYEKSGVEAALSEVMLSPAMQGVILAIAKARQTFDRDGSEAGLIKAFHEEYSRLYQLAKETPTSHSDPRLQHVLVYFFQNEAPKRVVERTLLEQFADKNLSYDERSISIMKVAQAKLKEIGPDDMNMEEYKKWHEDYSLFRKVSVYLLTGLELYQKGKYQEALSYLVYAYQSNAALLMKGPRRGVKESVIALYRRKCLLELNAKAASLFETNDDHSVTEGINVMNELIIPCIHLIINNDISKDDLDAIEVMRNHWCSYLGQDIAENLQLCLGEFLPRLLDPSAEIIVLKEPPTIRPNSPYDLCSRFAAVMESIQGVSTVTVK
Experiment: Ubiquitin-Rhodamine 110 Assay for USP28 Activity, Example A-1(a)
Format: biochemical
Details: Ubiquitin-Rhodamine 110 assay, read-out: USP28 A-1(a) IC50 range
Outline: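 Full-length His-tagged USP28 (1-1077, Expi293F-expressed; […]) was preincubated 30 min with compound (25 μM–1.3 nM, 10-point 3-fold) in 20 mM Tris-HCl pH 8.0, 3 mM BME, 0.03% BGG, 0.01% Triton X-100. Ub-Rh110 (25 nM) was then added for 45 min at room temperature, stopped with citric acid, and read by fluorescence (485/535 nm).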

Cc1ccc2c(N)c(C(=O)N[C@@H]3COc4cc(N5CC6CCC(C5)N6)c(F)c(F)c4C3)sc2n1 [Example 13-4, N-((3S)-7-(3,8-diazabicyclo[3.2.1]octan-3-yl)-5,6-difluorochroman-3-yl)-3-amino-6-methylthieno[2,3-b]pyridine-2-carboxamide]
IC50 (format Example A-1(a)): 1 to 50 nM

CO[C@H]1CN(c2ccc3c(n2)CC[C@H](NC(=O)c2sc4nc(C)cnc4c2N)C3)C[C@@H]1N (single isomer, unassigned) [Example 23-1]
IC50 (format Example A-1(a)): 200 to 2000 nM

Cc1cc(C(F)(F)F)c2c(N)c(C(=O)N[C@H]3COc4cc(N5CCNCC5)cc(F)c4C3)sc2n1 [Example 10-14, (R)-3-amino-N-(5-fluoro-7-(piperazin-1-yl)chroman-3-yl)-6-methyl-4-(trifluoromethyl)thieno[2,3-b]pyridine-2-carboxamide]
IC50 (Example A-1(a)): 1 to 50 nM

Cc1ccc2c(N)c(C(=O)N[C@H]3COc4cc(O[C@@H]5COC6(CNC6)C5)ccc4C3)sc2n1 (single isomer, unassigned) [Example 9-1]
IC50 (Example A-1(a)): 1 to 50 nM

Cc1ccc2c(N)c(C(=O)N[C@@H]3CCc4cc(N5C6CNCC5C6)ccc4C3)sc2n1 (single isomer, unassigned) [Example 11-36]
IC50 (format Example A-1(a)): 200 to 2000 nM

Cc1ccc2c(N)c(C(=O)N[C@@H]3CCc4cc(N5CC6CCC(C5)N6)c(F)cc4C3)sc2n1 (single isomer, unassigned) [Example 21-3]
IC50 (format Example A-1(a)): 1 to 50 nM

Cc1ccc2c(N)c(C(=O)N[C@H]3COc4c(F)c(N5CC6CCC(C5)N6)cc(F)c4C3)sc2n1 (single isomer, unassigned) [Example 13-1]
IC50 (format Example A-1(a)): 1 to 50 nM

[2H]C1([2H])NC([2H])([2H])C([2H])([2H])N(c2cc(F)c3c(c2)OC[C@H](NC(=O)c2sc4nc(C)ccc4c2N)C3)C1([2H])[2H] [Example 10-4, (R)-3-amino-N-(5-fluoro-7-(piperazin-l-yl-2,2,3,3,5,5,6,6-d8)chroman-3-yl)-6-methylthieno[2,3-b]pyridine-2-carboxamide]
IC50 (Example A-1(a)): 1 to 50 nM

COc1ccc2c(N)c(C(=O)N[C@H]3COc4cc(N5CCNCC5)cc(F)c4C3)sc2n1 [Example 10-11, (R)-3-amino-N-(5-fluoro-7-(piperazin-1-yl)chroman-3-yl)-6-methoxythieno[2,3-b]pyridine-2-carboxamide]
IC50 (Example A-1(a)): 1 to 50 nM

Cc1ccc2c(N)c(C(=O)N[C@H]3COc4cc(N5CC6CNCC(C5)O6)cc(F)c4C3)sc2n1 [Example 10-6, N-((3R)-7-(9-oxa-3,7-diazabicyclo[3.3.1]nonan-3-yl)-5-fluorochroman-3-yl)-3-amino-6-methylthieno[2,3-b]pyridine-2-carboxamide]
IC50 (Example A-1(a)): 1 to 50 nM

Cc1ccc2c(N)c(C(=O)N[C@H]3CCc4c(ccc(N5CCNCC5)c4F)C3)sc2n1 (single isomer, unassigned) [Example 21-6]
IC50 (format Example A-1(a)): 200 to 2000 nM

CCn1ccc2cc(C(=O)N[C@H]3CCc4cc(N5CC6CCC(C5)N6)ccc4C3)nnc21 (single isomer, unassigned) [Example 11-24]
IC50 (Example A-1(a)): 200 to 2000 nM

Cc1nc2sc(C(=O)N[C@@H]3CCc4c(C#N)c(N5CC6CCC(C5)N6)cc(F)c4C3)c(N)c2s1 (single isomer, unassigned) [Example 14-22]
IC50 (format Example A-1(a)): 200 to 2000 nM

Cc1cnc2c(N)c(C(=O)N[C@@H]3CCc4cc(N5CCNC[C@@H](O)C5)ccc4C3)sc2n1 (single isomer, unassigned) [Example 7-5]
IC50 (Example A-1(a)): 50 to 200 nM

Cc1ccc2c(N)c(C(=O)N[C@H]3COc4cc(N5CC6CCC(C5)N6)c(F)c(F)c4C3)sc2n1 [Example 13-3, N-((3R)-7-(3,8-diazabicyclo[3.2.1]octan-3-yl)-5,6-difluorochroman-3-yl)-3-amino-6-methylthieno[2,3-b]pyridine-2-carboxamide]
IC50 (format Example A-1(a)): 200 to 2000 nM

Cc1ccc2c(N)c(C(=O)N[C@H]3CCc4c(ccc(N5CC6CCC(C5)N6)c4F)C3)sc2n1 (single isomer, unassigned) [Example 21-2]
IC50 (format Example A-1(a)): 1 to 50 nM

Cc1nc2sc(C(=O)N[C@H]3CCc4cc(N5CC6CCC(C5)N6)ccc4C3)c(N)c2s1 (single isomer, unassigned) [Example 12-1]
IC50 (format Example A-1(a)): 200 to 2000 nM

CO[C@H]1CN(c2ccc3c(n2)CC[C@H](NC(=O)c2sc4nc(C)ccc4c2N)C3)C[C@@H]1N [Example 23-4, 3-amino-N-[(6S)-2-[(3S,4S)-3-amino-4-methoxypyrrolidin-1-yl]-5,6,7,8-tetrahydroquinolin-6-yl]-6-methylthieno[2,3-b]pyridine-2-carboxamide]
IC50 (format Example A-1(a)): 50 to 200 nM

Cc1cnc2c(N)c(C(=O)N[C@H]3COc4cc(N5CC6CC(C5)N6)cc(F)c4C3)sc2n1 [Example 10-8, N-((3R)-7-(3,6-diazabicyclo[3.1.1]heptan-3-yl)-5-fluorochroman-3-yl)-7-amino-3-methylthieno[2,3-b]pyrazine-6-carboxamide]
IC50 (Example A-1(a)): 1 to 50 nM

Cc1cnc2c(N)c(C(=O)N[C@H]3CCc4cc(N5CC6CCC(C5)N6)ccc4C3)sc2n1 (single isomer, unassigned) [Example 11-7]
IC50 (Example A-1(a)): 50 to 200 nM

Cc1ccc2c(N)c(C(=O)N[C@@H]3COc4c(F)c(N5CC6CCC(C5)N6)cc(F)c4C3)sc2n1 (single isomer, unassigned) [Example 13-2]
IC50 (format Example A-1(a)): 200 to 2000 nM

Cc1ccc2c(N)c(C(=O)N[C@H]3COc4cc(C5(F)CCNCC5)ccc4C3)sc2n1 [Example 8-1, (R)-3-Amino-N-(7-(4-fluoropiperidin-4-yl)chroman-3-yl)-6-methylthieno[2,3-b]pyridine-2-carboxamide]
IC50 (Example A-1(a)): 1 to 50 nM

Cc1ccc2c(N)c(C(=O)N[C@H]3COc4c(ccc(N5CCNCC5)c4Cl)C3)sc2n1 [Example 13_7, (R)-3-amino-N-(8-chloro-7-(piperazin-1-yl)chroman-3-yl)-6-methylthieno[2,3-b]pyridine-2-carboxamide]
IC50 (format Example A-1(a)): 1 to 50 nM

Cc1ccc2c(N)c(C(=O)N[C@H]3COc4nc(N5CCNCC5)c(F)cc4C3)sc2n1 [Example 20, (R)-3-Amino-N-(6-fluoro-7-(piperazin-1-yl)-3,4-dihydro-2H-pyrano[2,3-b]pyridin-3-yl)-6-methylthieno[2,3-b]pyridine-2-carboxamide]
IC50 (format Example A-1(a)): 50 to 200 nM

Cc1ccc2c(N)c(C(=O)N[C@H]3CCc4cc(N5CC6CCC(C5)N6)c(F)cc4C3)sc2n1 (single isomer, unassigned) [Example 21-4]
IC50 (format Example A-1(a)): 200 to 2000 nM

Cc1cnc2c(N)c(C(=O)N[C@@H]3CCc4cc(N5CC6CCC(C5)N6)ccc4C3)sc2n1 (single isomer, unassigned) [Example 11-8]
IC50 (Example A-1(a)): 200 to 2000 nM

Cc1ccc2c(N)c(C(=O)N[C@@H]3COc4cc(N5CCNCC5)cc(F)c4C3)sc2n1 [Example 10-5, (S)-3-amino-N-(5-fluoro-7-(piperazin-1-yl)chroman-3-yl)-6-methylthieno[2,3-b]pyridine-2-carboxamide]
IC50 (Example A-1(a)): 200 to 2000 nM

Cc1ccc2c(N)c(C(=O)N[C@@H]3CCc4cc(N5CCN[C@@H](CO)C5)ccc4C3)sc2n1 (single isomer, unassigned) [Example 7-11]
IC50 (Example A-1(a)): 50 to 200 nM

Cc1cnc2c(N)c(C(=O)N[C@H]3CCc4cc(N5CCNC[C@@H](O)C5)ccc4C3)sc2n1 (single isomer, unassigned) [Example 7-4]
IC50 (Example A-1(a)): 50 to 200 nM

Cc1ccc2c(N)c(C(=O)N(C)[C@H]3COc4cc(N5CCNCC5)cc(F)c4C3)sc2n1 [Example 10-15, 3-amino-N-[(3R)-5-fluoro-7-(piperazin-1-yl)-3,4-dihydro-2H-1-benzopyran-3-yl)-N,6-dimethylthieno[2,3-b]pyridine-2-carboxamide]
IC50 (Example A-1(a)): > 2000 nM

CCn1ccc2cc(C(=O)N[C@@H]3CCc4cc(N5CC6CCC(C5)N6)ccc4C3)cnc21 (single isomer, unassigned) [Example 11-10]
IC50 (Example A-1(a)): 50 to 200 nM

Cc1ccc2c(N)c(C(=O)N[C@@H]3CCc4c(F)c(N5CCNCC5)cc(F)c4C3)sc2n1 (single isomer, unassigned) [Example 22-2]
IC50 (format Example A-1(a)): 1 to 50 nM

Cc1ccc2c(N)c(C(=O)N[C@@H]3COc4c(ccc(N5CCNCC5)c4Cl)C3)sc2n1 [Example 13-8, (S)-3-amino-N-(8-chloro-7-(piperazin-1-yl)chroman-3-yl)-6-methylthieno[2,3-b]pyridine-2-carboxamide]
IC50 (format Example A-1(a)): 200 to 2000 nM

Cc1ccc2c(N)c(C(=O)N[C@H]3CCc4cc(N5CCN[C@H](CO)C5)ccc4C3)sc2n1 (single isomer, unassigned) [Example 7-8]
IC50 (Example A-1(a)): 200 to 2000 nM
